Source: patent US11730819B2, “Peptide derivatives having novel linkage structures” (priority 2016, dated 2023)
Where “and” joins values, the source holds several entries; their conditions need not be identical. Equal entries are not always repeated. Where two headings read alike, the source gives them in different places.

What was measured:
MT1-MMP hemopexin domain = biological target: T1, MT1-MMP hemopexin domain (Homo sapiens, UniProt P50281); assay: Fluorescence polarisation competition binding assay
T1 construct: residues Cys319-Gly511 from the human gene; His6 (N); made in house; host or cells: HEK293 cells (transient, pEXPR-IBA42 vector)
Source text: The MT1-MMP hemopexin-like repeats (also known as the MT1-MMP hemopexin domain), residues Cys319-Gly511 from the human gene, were transiently expressed in HEK293 cells as secreted N-terminally His6-tagged soluble protein, using the pEXPR-IBA42 (IBA) expression vector. Following expression, the protein was purified by Nickel-NTA affinity chromatography followed by gel filtration, and purity was checked by SDS-PAGE. Batch to batch variability was also monitored by fluorescence thermal shift experiments in the presence/absence of a hemopexin domain binding bicycle.
(§1) Binding affinity was measured using competition assays using Fluorescence Polarisation (anisotropy).
Fluoresceination may be performed on the N-terminal amino group of the peptide, which is separated from the bicycle core sequence by a sarcosine spacer (usually Sar5). This can be done during Fmoc solid phase synthesis or post-synthetically (after cyclisation with TBMB and purification) if the N-terminal amino group is unique to the peptide. Fluoresceination can also be performed on the C-terminus, usually on a Lysine introduced as the first C-terminal residue, which is then separated from the bicycle core sequence by a sarcosine spacer (usually Sar6). Thus, N-terminal tracers can have a molecular format described as Fluo-Gly-Sar5-A(BicycleCoreSequence), and (BicycleCoreSequence)-A-Sar6-K(Fluo) for a C-terminally fluoresceinated construct. Fluorescent tracers used in the Examples are A-(17-69)-A-Sar6-K(Fluo), A-(17-69-07)-A-Sar6-K(Fluo), and A-(17-69-12)-A-Sar6-K(Fluo).
(§2) Here, a pre-formed complex of PEX with the fluorescent PEX-binding tracer is titrated with free, non-fluoresceinated bicyclic peptide. Since all 17-69-based peptides are expected to bind at the same site, the titrant will displace the fluorescent tracer from PEX. Dissociation of the complex can be measured quantitatively, and the Kd of the competitor (titrant) to the target protein determined. The advantage of the competition method is that the affinities of non-fluoresceinated bicyclic peptides can be determined accurately and rapidly.
(§3) Subsequently, the non-fluorescent competitor bicyclic peptide (usually just the bicycle core sequence) is titrated, such that it displaces the fluorescent tracer from the target protein. The displacement of the tracer is measured and associated with a drop in fluorescence polarisation. The drop in fluorescence polarisation is proportional to the fraction of target protein bound with the non-fluorescent titrant, and thus is a measure of the affinity of titrant to target protein.
(§4) The raw data is fit to the analytical solution of the cubic equation that describes the equilibria between fluorescent tracer, titrant, and binding protein. The fit requires the value of the affinity of fluorescent tracer to the target protein, which can be determined separately by direct binding FP experiments (see previous section).

rat/mouse MT1-MMP = rat/mouse MT1-MMP (Mus musculus, UniProt P53690); assay: Binding affinity to rat/mouse MT1-MMP, measured as previously described; conditions: Binding Affinity (Ki in nM) rat/mouse ki, bicycle peptide-drug conjugates, two values given
Experimental: as §1, §2, §3
as §4, with “section). The curve fitting was performed using Sigmaplot 12.0 and used an adapted version of the equation described by Zhi-Xin Wang (FEBS Letters 360 (1995) 111-114).” for “section).”
The in vitro binding affinities of the bicycle peptide-drug conjugates prepared above were measured for MT1-MMP as previously described herein.

[1] = Binding Affinity (Ki in nM) Human ki, bicycle peptide-drug conjugates, human MT1-MMP, two values given
[2] = human MT1-MMP, bicycle peptides, read-out: Binding Affinity Ki (h)

CC[C@H](C)[C@@H]([C@@H](CC(=O)N1CCC[C@H]1[C@H](OC)[C@@H](C)C(=O)N[C@H](C)[C@@H](O)c1ccccc1)OC)N(C)C(=O)[C@@H](NC(=O)[C@H](C(C)C)N(C)C(=O)OCc1ccc(NC(=O)[C@H](CCCNC(N)=O)NC(=O)[C@@H](NC(=O)Cn2cc(CCC(=O)N[C@@H](C)C(=O)N[C@H]3CN(C)Cc4cc5cc(c4)CN(C)C[C@@H](C(N)=O)NC(=O)[C@H](C(C)(C)C)NC(=O)[C@H](CC(=O)O)NC(=O)[C@H](Cc4ccc(O)cc4)NC(=O)[C@H](Cc4ccccc4)NC(=O)[C@H](CC(=O)O)NC(=O)[C@H](CCC(=O)O)NC(=O)[C@H](CSC5)NC(=O)[C@@H](C)NC(=O)[C@H](Cc4cccc5ccccc45)NC(=O)[C@H](CCC(=O)O)NC(=O)[C@H](CC(N)=O)NC(=O)[C@@H](C)NC3=O)nn2)C(C)C)cc1)C(C)C [BT17BDC-62]
Ki (MT1-MMP hemopexin domain; [1]): 3.9 nM and 3.3 nM
Ki (rat/mouse MT1-MMP): 2.1 nM and 1.9 nM

C#CCCC(=O)N[C@@H](C)C(=O)N[C@H]1CN(C)Cc2cc3cc(c2)CN(C)C[C@@H](C(N)=O)NC(=O)[C@H](C(C)(C)C)NC(=O)[C@H](CC(=O)O)NC(=O)[C@H](Cc2ccc(O)cc2)NC(=O)[C@H](Cc2ccccc2)NC(=O)[C@H](CC(=O)O)NC(=O)[C@H](CCC(=O)O)NC(=O)[C@H](CSC3)NC(=O)[C@@H](C)NC(=O)[C@H](Cc2cccc3ccccc23)NC(=O)[C@H](CCC(=O)O)NC(=O)[C@H](CC(N)=O)NC(=O)[C@@H](C)NC1=O [17-69-07-N443, PYA-A(Dap(Me))(D-Ala)NE(1Nal)(D-Ala)CEDFYD(tBuGly)(Dap(Me))]
Ki (MT1-MMP hemopexin domain; [2]): 3.2 nM

C[C@H](N)C(=O)N[C@H]1CN(C)Cc2cc3cc(c2)CN(C)C[C@@H](C(N)=O)NC(=O)[C@H](C(C)(C)C)NC(=O)[C@H](CC(=O)O)NC(=O)[C@H](Cc2ccc(O)cc2)NC(=O)[C@H](Cc2ccccc2)NC(=O)[C@H](CC(=O)O)NC(=O)[C@H](CCC(=O)O)NC(=O)[C@H](CSC3)NC(=O)[C@@H](C)NC(=O)[C@H](Cc2cccc3ccccc23)NC(=O)[C@H](CCC(=O)O)NC(=O)[C@H](CC(N)=O)NC(=O)[C@@H](C)NC1=O [17-69-07-N452, A(Dap(Me))(D-Ala)NE(1Nal)(D-Ala)CEDFYD(tBuGly)(Dap(Me))]
Ki (MT1-MMP hemopexin domain; [2]): 4 nM

C#CCCC(=O)N[C@H](CC(=O)O)C(=O)N[C@H](CC(=O)O)C(=O)N[C@H](CC(=O)O)C(=O)N(C)CC(=O)N(C)CC(=O)N[C@@H](C)C(=O)N[C@H]1CN(C)Cc2cc3cc(c2)CN(C)C[C@H](NC(=O)[C@@H](C)NC(=O)[C@H](Cc2cccc4ccccc24)NC(=O)[C@H](CCC(=O)O)NC(=O)[C@H](CC(N)=O)NC(=O)[C@@H](C)NC1=O)C(=O)N[C@@H](CCC(=O)O)C(=O)N[C@@H](CC(=O)O)C(=O)N[C@@H](Cc1ccccc1)C(=O)N[C@@H](Cc1ccc(O)cc1)C(=O)N[C@@H](CC(=O)O)C(=O)N[C@@H](C(C)(C)C)C(=O)N[C@H](C(N)=O)CSC3 [17-69-07-N473, (PYA)-(D-Asp)3-Sar2-A(Dap(Me))(D-Ala)NE(1Nal)(D-Ala)(Dap(Me))EDFYD(tBuGly)C]
Ki (MT1-MMP hemopexin domain): 7.3 nM

C#CCCC(=O)N[C@H](CC(=O)O)C(=O)N[C@H](CC(=O)O)C(=O)N[C@H](CC(=O)O)C(=O)N(C)CC(=O)N(C)CC(=O)N[C@@H](C)C(=O)N[C@H]1CN(C)Cc2cc3cc(c2)CN(C)C[C@@H](C(N)=O)NC(=O)[C@H](C(C)(C)C)NC(=O)[C@H](CC(=O)O)NC(=O)[C@H](Cc2ccc(O)cc2)NC(=O)[C@H](Cc2ccccc2)NC(=O)[C@H](CC(=O)O)NC(=O)[C@H](CCC(=O)O)NC(=O)[C@H](CSC3)NC(=O)[C@@H](C)NC(=O)[C@H](Cc2cccc3ccccc23)NC(=O)[C@H](CCC(=O)O)NC(=O)[C@H](CC(N)=O)NC(=O)[C@@H](C)NC1=O [17-69-07-N471, (PYA)-(D-Asp)3-Sar2-A(Dap(Me))(D-Ala)NE(1Nal)(D-Ala)CEDFYD(tBuGly)(Dap(Me))]
Ki (MT1-MMP hemopexin domain; [2]): 4.6 nM

C#CCCC(=O)N[C@@H](C)C(=O)N[C@H]1CNCc2cc3cc(c2)CSC[C@H](NC(=O)[C@@H](C)NC(=O)[C@H](Cc2cccc4ccccc24)NC(=O)[C@H](CCC(=O)O)NC(=O)[C@H](CC(N)=O)NC(=O)[C@@H](C)NC1=O)C(=O)N[C@@H](CCC(=O)O)C(=O)N[C@@H](CC(=O)O)C(=O)N[C@@H](Cc1ccccc1)C(=O)N[C@@H](Cc1ccc(O)cc1)C(=O)N[C@@H](CC(=O)O)C(=O)N[C@@H](C(C)(C)C)C(=O)N[C@H](C(N)=O)CNC3 [17-69-07-N438, PYA-A(Dap)(D-Ala)NE(1Nal)(D-Ala)CEDFYD(tBuGly)(Dap)]
Ki (MT1-MMP hemopexin domain; Binding Affinity Ki (h), human MT1-MMP, bicycle peptides): 3.1 nM

CC[C@H](C)[C@@H]([C@@H](CC(=O)N1CCC[C@H]1[C@H](OC)[C@@H](C)C(=O)N[C@H](C)[C@@H](O)c1ccccc1)OC)N(C)C(=O)[C@@H](NC(=O)[C@H](C(C)C)N(C)C(=O)OCc1ccc(NC(=O)[C@H](CCCNC(N)=O)NC(=O)[C@@H](NC(=O)CCCC(=O)NCCC(=O)N(C)CC(=O)N(C)CC(=O)N(C)CC(=O)N(C)CC(=O)N(C)CC(=O)N(C)CC(=O)N(C)CC(=O)N(C)CC(=O)N(C)CC(=O)N(C)CC(=O)N[C@@H](C)C(=O)N[C@H]2CN(C)Cc3cc4cc(c3)CN(C)C[C@@H](C(N)=O)NC(=O)[C@H](C(C)(C)C)NC(=O)[C@H](CC(=O)O)NC(=O)[C@H](Cc3ccc(O)cc3)NC(=O)[C@H](Cc3ccccc3)NC(=O)[C@H](CC(=O)O)NC(=O)[C@H](CCC(=O)O)NC(=O)[C@H](CSC4)NC(=O)[C@@H](C)NC(=O)[C@H](Cc3cccc4ccccc34)NC(=O)[C@H](CCC(=O)O)NC(=O)[C@H](CC(N)=O)NC(=O)[C@@H](C)NC2=O)C(C)C)cc1)C(C)C [BT17BDC-68]
Ki (MT1-MMP hemopexin domain; [1]): 2.9 nM and 3.3 nM
Ki (rat/mouse MT1-MMP): 1.8 nM and 1.6 nM

CC(=O)N[C@@H](C)C(=O)N[C@H]1CNCc2cc3cc(c2)CSC[C@H](NC(=O)[C@@H](C)NC(=O)[C@H](Cc2cccc4ccccc24)NC(=O)[C@H](CCC(=O)O)NC(=O)[C@H](CC(N)=O)NC(=O)[C@@H](C)NC1=O)C(=O)N[C@@H](CCC(=O)O)C(=O)N[C@@H](CC(=O)O)C(=O)N[C@@H](Cc1ccccc1)C(=O)N[C@@H](Cc1ccc(O)cc1)C(=O)N[C@@H](CC(=O)O)C(=O)N[C@@H](C(C)(C)C)C(=O)N[C@H](C(N)=O)CNC3 [17-69-07-N385, Ac-A(Dap)(D-Ala)NE(1Nal)(D-Ala)CEDFYD(tBuGly)(Dap)]
Kd (MT1-MMP hemopexin domain): 0.45 nM

C#CCCC(=O)NCCC(=O)N(C)CC(=O)N(C)CC(=O)N(C)CC(=O)N(C)CC(=O)N(C)CC(=O)N(C)CC(=O)N(C)CC(=O)N(C)CC(=O)N(C)CC(=O)N(C)CC(=O)N[C@@H](C)C(=O)N[C@H]1CNCc2cc3cc(c2)CSC[C@H](NC(=O)[C@@H](C)NC(=O)[C@H](Cc2cccc4ccccc24)NC(=O)[C@H](CCC(=O)O)NC(=O)[C@H](CC(N)=O)NC(=O)[C@@H](C)NC1=O)C(=O)N[C@@H](CCC(=O)O)C(=O)N[C@@H](CC(=O)O)C(=O)N[C@@H](Cc1ccccc1)C(=O)N[C@@H](Cc1ccc(O)cc1)C(=O)N[C@@H](CC(=O)O)C(=O)N[C@@H](C(C)(C)C)C(=O)N[C@H](C(N)=O)CNC3 [17-69-07-N434, (PYA)-(B-Ala)-Sar10-A(Dap)(D-Ala)NE(1Nal)(D-Ala)CEDFYD(tBuGly)(Dap)]
Kd (MT1-MMP hemopexin domain): 1.52 nM
